Source: patent US20170087125A1, “FLAVONOID COMPOSITIONS FOR THE TREATMENT OF CANCER” (Augusta University Research Institute, Inc., priority 2015, published 2017)
Where two headings read alike, the source gives them in different places.

Experiment: Pharmacokinetics in rat plasma after oral and intravenous administration
Assay type: in vivo, Sprague Dawley rats
Conditions: for half-life / AUC / Cmax / Tmax: male, Sprague-Dawley, rat, plasma, 100 mg/kg; for half-life: read-out: t1/2 half-life (converted); for Cmax / Tmax: oral; for Bioavailabilty: rat plasma, ProFine 100 mg/kg (n = 3), oral vs IV
Description: Blood samples were collected at 9 time points, i.e., 0 min, 15 min, 30 min, 60 min, 2 h, 4 h, 8 h, 12 h and 24 h. Plasma levels of Luteolin, Quercetin and Kaempferol were analyzed using HPLC. […]

Question: With `O=c1c(O)c(-c2ccc(O)c(O)c2)oc2cc(O)cc(O)c12` [Ingredient 2, 3,3′,4′5,7-Penthydroxyflavone] as the compound, how does the half-life read?
Answer: 1.71 h

Question: And the AUC (iv, read-out: AUC0.24 (IV))?
Answer: 27200 ng·h/mL

Question: What about the Cmax of the same compound?
Answer: 51.9 ng/mL

Question: And the Tmax?
Answer: 1 h

Question: What about the AUC (po, read-out: AUC0.24 (Oral)) of the same compound?
Answer: 248 ng·h/mL

Question: And the Bioavailabilty?
Answer: 0.91%

Question: What does the source list for `O=c1c(O)c(-c2ccc(O)cc2)oc2cc(O)cc(O)c12` [Ingredient 3, 3,5,7-trihydroxy-2-(4-hydroxyphenyl)-4H-1-benzopyran-4-one]?
Answer: half-life: 2.45 h; AUC (iv, read-out: AUC0.24 (IV)): 93800 ng·h/mL; Cmax: 165 ng/mL; Tmax: 4 h; AUC (po, read-out: AUC0.24 (Oral)): 2710 ng·h/mL; Bioavailabilty: 2.89%

Question: For `O=c1cc(-c2ccc(O)c(O)c2)oc2cc(O)cc(O)c12` [Ingredient 1, 3′,4′,5,7-tetrahydroxyflavone], which half-life is on record?
Answer: 2.26 h

Question: What about the AUC (iv, read-out: AUC0.24 (IV)) of the same compound?
Answer: 90100 ng·h/mL

Question: What about the Cmax of the same compound?
Answer: 127 ng/mL

Question: What about the Tmax of the same compound?
Answer: 1 h

Question: And the AUC (po, read-out: AUC0.24 (Oral))?
Answer: 1170 ng·h/mL

Question: What about the Bioavailabilty of the same compound?
Answer: 1.30%
